Columns and labels:
Settings in all cases: 72 h
Vero E6 [1] = assay: relative viability EC50 (midpoint between 100% and the lowest measured viability); higher = less toxic
U2OS [2] = assay: as above
HepG2 [3] = assay: as above
Caco-2 [4] = assay: as above
Vero E6 [5] = assay: drug sensitivity score (DSS) for viability; higher = more toxic; extreme values may be limits of the assay
U2OS [6] = assay: as above
HepG2 [7] = assay: as above
Caco-2 [8] = assay: as above
Vero E6 [9] = assay: cell viability relative to DMSO; higher = less toxic
U2OS [10] = assay: as above
HepG2 [11] = assay: as above
Caco-2 [12] = assay: as above
Calu-3 [13] = assay: relative viability EC50 (midpoint between 100% and the lowest measured viability); higher = less toxic
Calu-3 [14] = assay: drug sensitivity score (DSS) for viability; higher = more toxic; extreme values may be limits of the assay
Calu-3 [15] = assay: cell viability relative to DMSO; higher = less toxic

Row | SMILES | relative viability EC50 (Vero E6 [1]) [µM] | relative viability EC50 (U2OS [2]) [µM] | relative viability EC50 (HepG2 [3]) [µM] | relative viability EC50 (Caco-2 [4]) [µM] | drug sensitivity score (Vero E6 [5]) | drug sensitivity score (U2OS [6]) | drug sensitivity score (HepG2 [7]) | drug sensitivity score (Caco-2 [8]) | cell viability (Vero E6 [9]; 1 nM) [%] | cell viability (Vero E6 [9]; 10 nM) [%] | cell viability (Vero E6 [9]; 100 nM) [%] | cell viability (Vero E6 [9]; 1000 nM) [%] | cell viability (Vero E6 [9]; 10000 nM) [%] | cell viability (U2OS [10]; 1 nM) [%] | cell viability (U2OS [10]; 10 nM) [%] | cell viability (U2OS [10]; 100 nM) [%] | cell viability (U2OS [10]; 1000 nM) [%] | cell viability (U2OS [10]; 10000 nM) [%] | cell viability (HepG2 [11]; 1 nM) [%] | cell viability (HepG2 [11]; 10 nM) [%] | cell viability (HepG2 [11]; 100 nM) [%] | cell viability (HepG2 [11]; 1000 nM) [%] | cell viability (HepG2 [11]; 10000 nM) [%] | cell viability (Caco-2 [12]; 1 nM) [%] | cell viability (Caco-2 [12]; 10 nM) [%] | cell viability (Caco-2 [12]; 100 nM) [%] | cell viability (Caco-2 [12]; 1000 nM) [%] | cell viability (Caco-2 [12]; 10000 nM) [%] | relative viability EC50 (Calu-3 [13]) [µM] | drug sensitivity score (Calu-3 [14]) | cell viability (Calu-3 [15]; 1 nM) [%] | cell viability (Calu-3 [15]; 10 nM) [%] | cell viability (Calu-3 [15]; 100 nM) [%] | cell viability (Calu-3 [15]; 1000 nM) [%] | cell viability (Calu-3 [15]; 10000 nM) [%]
1 | CC/C=C(\C(=O)N[C@@H]1C(=O)N2C(C(=O)OCOC(=O)C(C)(C)C)=C(COC(N)=O)CS[C@H]12)c1csc(N)n1 [cefcapene-pivoxil] | > 10 | > 10 | > 10 | > 10 | 0 | 0 | 3.3 | 0 | 109 | 94.7 | 110 | 111 | 102 | 97.2 | 106 | 98.5 | 103 | 103 | 107 | 93.8 | 89.7 | 78.8 | 86.4 | 104 | 101 | 117 | 113 | 94.4 |  |  |  |  |  |  | 
2 | Cc1c(N2C(=O)[C@@H]3[C@H](O)CCN3C2=O)ccc(C#N)c1Cl |  | > 10 | > 10 | > 10 |  | 0 | 0 | 0 |  |  |  |  |  | 94.8 | 99.8 | 98.6 | 94.4 | 97.1 | 97.7 | 95.4 | 94 | 93.8 | 97.1 | 95.4 | 100 | 89.1 | 93.1 | 90.3 | > 10 | 0 | 106 | 101 | 97.4 | 109 | 105
3 | O=C1c2ccccc2-n2c1nc1ccccc1c2=O [tryptanthrin] | > 10 | > 10 | 2.94 | > 10 | 0 | 0 | 3.5 | 0.4 | 104 | 99.6 | 101 | 95.7 | 96.9 | 96.5 | 97.7 | 101 | 102 | 97.7 | 88.7 | 87.5 | 90.7 | 98.2 | 40.5 | 101 | 107 | 110 | 104 | 79.7 |  |  |  |  |  |  | 
4 | O=C1C[C@@H]2OCC=C3CN4CC[C@]56c7ccccc7N1[C@H]5[C@H]2[C@H]3C[C@H]46 [strychnine] | > 10 | > 10 | > 10 | > 10 | 0.9 | 0 | 1.7 | 3.7 | 102 | 98.8 | 98.3 | 87.1 | 88.7 | 97.2 | 101 | 96.8 | 103 | 95.8 | 113 | 93.7 | 106 | 83.1 | 96.3 | 97.8 | 91.1 | 83 | 85.6 | 90.2 |  |  |  |  |  |  | 
5 | NC(=O)CN1C=CCC(C(N)=O)=C1 [caricotamide] | > 10 |  | > 10 | > 10 | 0 |  | 0 | 0 | 101 | 95.4 | 99.5 | 99 | 101 |  |  |  |  |  | 93.2 | 103 | 104 | 116 | 106 | 113 | 103 | 103 | 97.7 | 104 |  |  |  |  |  |  | 
6 | CCc1ccc(C2=CC(C)(C)Sc3ccc(C#Cc4ccc(C(=O)O)cc4)cc32)cc1 |  | > 10 | > 10 | > 10 | 6.1 | 0 | 2.9 | 0.6 | 98.5 | 89.8 | 81.2 | 74.9 | 80.6 | 101 | 102 | 96.6 | 104 | 93.2 | 94.7 | 89.7 | 83.7 | 80.6 | 90.1 | 100 | 103 | 97.7 | 100 | 79.4 | > 10 | 0 | 90.9 | 113 | 95.5 | 94.6 | 95.2
7 | CN(C)CCOC1=Cc2ccccc2Sc2ccc(Cl)cc21 [zotepine] |  | > 10 | 1.98 | > 10 | 2.2 | 0 | 4.3 | 0 | 99.4 | 93.6 | 98.6 | 94.1 | 70.4 | 104 | 97.2 | 97.7 | 91.5 | 92.4 | 104 | 95 | 98.7 | 91.8 | 45.7 | 92.4 | 84.1 | 91.9 | 90.7 | 75.7 | > 10 | 0.4 | 101 | 85.3 | 93.3 | 104 | 80.8
8 | CN[C@@H]1[C@H](O)[C@H](NC)[C@H]2O[C@@]3(O)C(=O)C[C@@H](C)O[C@H]3O[C@@H]2[C@H]1O [spectinomycin] |  | > 10 | > 10 | > 10 | 1.2 | 0 | 0 | 0 | 56 | 108 | 55.1 | 108 | 59.1 | 101 | 107 | 100 | 102 | 98.5 | 88.4 | 105 | 98.7 | 106 | 96.7 | 100 | 102 | 99.4 | 109 | 91.9 | > 10 | 0 | 92.2 | 100 | 105 | 103 | 88.7
9 | CCOc1nc2c(N)ncnc2n1CC [ANR-94] |  | > 10 | > 10 | > 10 |  | 0 | 0 | 0 |  |  |  |  |  | 104 | 96.2 | 101 | 101 | 105 | 102 | 98.3 | 97.3 | 96.9 | 93.2 | 102 | 98.3 | 92.1 | 90.9 | 95.1 | > 10 | 0 | 105 | 95.1 | 96.5 | 95.9 | 102
10 | CC(C)OC(=O)CNC(=O)[C@H](CS)NC(=O)CC[C@H](N)C(=O)O [glutathione-monoisopropyl-ester] | > 10 |  | > 10 | > 10 | 0 |  | 0 | 0 | 99.3 | 103 | 99.5 | 99.7 | 100 |  |  |  |  |  | 102 | 103 | 105 | 101 | 97.3 | 95.7 | 103 | 96.2 | 103 | 96.3 |  |  |  |  |  |  | 
11 | Oc1cc2c(cc1O)[C@H]1c3ccccc3CN[C@@H]1CC2 (racemic) [dihydrexidine] | > 10 | > 10 | > 10 | > 10 | 0 | 0 | 0 | 0 | 96.7 | 96.7 | 96.8 | 97.6 | 104 | 101 | 93.2 | 104 | 96.9 | 104 | 83.4 | 95.8 | 90.9 | 93.2 | 82.1 | 102 | 97.7 | 99.6 | 92.6 | 97.9 |  |  |  |  |  |  | 
12 | CC(=O)c1cnc2ccc(-c3cc(Cl)c(O)c(Cl)c3)nc2c1N[C@H]1CC[C@H](CN(C)C)CC1 [OTS167] | 0.0351 | 0.0295 | 0.0253 | 0.0765 | 29.2 | 30.5 | 30.3 | 21.5 | 96.4 | 100 | 6.3 | 11.7 | 2.6 | 97.6 | 86.7 | 10.7 | 5.5 | 0 | 108 | 84.7 | 11.4 | 5.1 | 3.9 | 98.5 | 98.4 | 41.1 | 34.8 | 12 |  |  |  |  |  |  | 
13 | NC(=O)CCCCC1CCSS1 (configuration not stated) [lipoamide] | > 10 | > 10 | > 10 | > 10 | 0 | 0 | 0 | 0 | 103 | 99.2 | 102 | 106 | 99.2 | 102 | 99.8 | 99.1 | 98.2 | 98 | 88.4 | 108 | 104 | 102 | 90.9 | 110 | 90.3 | 92.4 | 97.9 | 102 |  |  |  |  |  |  | 
14 | O=C(OCCO)c1ccccc1O [2-hydroxyethyl-salicylate] |  | > 10 | > 10 | > 10 |  | 0 | 0 | 0 |  |  |  |  |  | 99.2 | 102 | 98.6 | 104 | 97.6 | 103 | 99.8 | 108 | 100 | 89 | 114 | 108 | 100 | 104 | 93.3 | > 10 | 0 | 97.5 | 95.5 | 108 | 108 | 94.8
15 | COc1cc(N)c(Cl)cc1C(=O)N[C@@H]1CCN(CCCOc2ccc(F)cc2)C[C@@H]1OC (racemic) [cisapride] |  | > 10 | > 10 | > 10 |  | 0 | 0 | 0 |  |  |  |  |  | 97.4 | 101 | 93.8 | 98.3 | 93.5 | 99.7 | 101 | 96 | 104 | 102 | 99.8 | 103 | 100 | 98.9 | 90.3 | > 10 | 0 | 99.6 | 101 | 84 | 107 | 110
16 | CCOC(=O)[C@@H](N)CCC(=O)N[C@@H](CSCc1ccccc1)C(=O)N[C@@H](C(=O)OCC)c1ccccc1 [ezatiostat] |  | > 10 | > 10 | > 10 |  | 0 | 0 | 0.4 |  |  |  |  |  | 96.9 | 106 | 96.1 | 100 | 95.3 | 101 | 98.8 | 99.4 | 97.1 | 107 | 98.4 | 93.4 | 92 | 91 | 86.2 | > 10 | 0 | 97.2 | 103 | 106 | 103 | 91.2

Source: the supplement of paper PMC13380429
